The values that follow come from paper PMC7717600, “Novel [(N-alkyl-3-indolylmethylene)hydrazono]oxindoles arrest cell cycle and induce cell apoptosis by inhibiting CDK2 and Bcl-2: synthesis, biological evaluation and in silico studies” (Journal of Enzyme Inhibition and Medicinal Chemistry, 2020).

Test [1] deals with MDA-MB-231. In words: SRB anti-proliferative assay. Type of test: cell-based. The settings on record: Homo sapiens; MDA-MB-231, SRB, mean ± SE of 3. The protocol:
(§1) All the newly prepared target conjugates (7, 8a–c, 9 and 10a–e) were investigated for the prospective growth inhibitory actions against three different cancer cell lines viz.; A-549, MDA-MB-231, and HCT-116, using the sulforhodamine B colorimetric (SRB) assay. Staurosporine, a clinically used antitumor drug, was co-assayed as a reference agent for the experiment.
(§2) Examination of the cytotoxic activity for the target conjugates was carried out in accordance with the SRB colorimetric assay protocol, as described previously.
(§3) In vitro anti-proliferative activity assay
(§4) Cells at a concentration of 0.50 x
(§5) Sulfo-Rhodamine-B stain (SRB) assay.
(§6) cell to the wall of the plate.
(§7) wells were prepared for each individual dose).
(§8) Unbound dye was removed by four

In test [2] the test system is HCT-116. In words: SRB anti-proliferative assay. Type of test: cell-based. Particulars: Homo sapiens; HCT-116, SRB, mean ± SE of 3. The protocol: as §1, §2, §3, §4, §5, §6, §7, §8
Test [3] deals with A-549. In words: SRB anti-proliferative assay. The settings on record: Homo sapiens, A549; A-549, SRB, mean ± SE of 3. Type of test: cell-based. The protocol: Staurosporine, a clinically used antitumor drug, was co-assayed as a reference agent for the experiment.
as §2, §3, §4, §5, §6, §7, §8

Test [4] concerns the target CDK2 (Homo sapiens, UniProt P24941). The settings on record: CDK2 ref 4; cited from earlier work.
Test [5] deals with CDK5. Also on record: method as in PMID 11439342. The settings on record: CDK5 ref 4; cited from earlier work.
The subject of test [6] is CDK1. Also on record: method as in PMID 11439342. Particulars: CDK1 ref 4; cited from earlier work.

On to `C=CCn1cc(C=NN=C2C(=O)Nc3ccc(F)cc32)c2ccccc21` [Compound 10b], for which the results for the IC50 in test [1], in test [2] and in test [3] were 54 ± 4.17 µM, 36.3 ± 2.35 µM and 59.9 ± 3.58 µM, respectively.

Turning to `O=C1Nc2ccccc2/C1=C1/Nc2ccccc2C1=NO` [Indirubin-3′-oxime], the values for the IC50 in test [4], in test [5] and in test [6] were 0.5 µM, 0.25 µM and 0.18 µM, respectively.

Turning to `CCn1cc(C=NN=C2C(=O)Nc3ccc(Cl)cc32)c2ccccc21` [Compound 7], the values for the IC50 in test [1], in test [2] and in test [3] were 27.6 ± 1.76 µM, 19.7 ± 1.28 µM and 50 ± 3.37 µM, respectively.

Turning to `COc1cccc2c1C(=O)c1c(O)c3c(c(O)c1C2=O)C[C@@](O)(C(=O)CO)C[C@@H]3O[C@H]1C[C@H](N)[C@H](O)[C@H](C)O1` [Dox., doxorubicin, reference compound], the results for the IC50 in test [1], in test [2] and in test [3] were 4.5 ± 0.29 µM, 3.7 ± 0.24 µM and 2.3 ± 0.17 µM, respectively.

Regarding `C=CCn1cc(/C=N/N=C2\C(=O)Nc3ccc(OC(F)(F)F)cc32)c2ccccc21` [Compound 10e], the IC50 in test [1] came out at 51.8 ± 3.77 µM; in test [2], 37.4 ± 2.06 µM; in test [3], 40.2 ± 1.88 µM.

What is called IC50 is the concentration needed to halve the response being measured.
